Reference: US20110045101A1, “FUNGICIDAL SUBSTITUTED AZOLES” (E.I. Du Pont De Nemours and Company, priority 2009, published 2011)
Marks after values point to notes of the source that are not given here.

Legend:
Assay type in all cases: in vivo
Settings in all cases: 100 = 100% disease control
Septoria nodorum = test: Test F: wheat glume blotch on wheat seedlings, sprayed the day before inoculation, visual disease rating
How it was run: (§1)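 Test rate was 200 ppm, sprayed to run-off and equal to 500 g/ha, or 40 ppm where marked. The compound was first taken up in acetone at 3% of final volume and suspended in acetone/purified water (50/50) containing 250 ppm Trem® 014.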

Alternaria solani = test: Test D: tomato early blight, sprayed the day before inoculation, visual disease rating
How it was run: as §1

Septoria tritici = test: Test G: wheat leaf blotch on wheat seedlings, sprayed the day before inoculation, visual disease rating
How it was run: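 Visual disease ratings taken 19 days after transfer to a 20° C growth chamber, following 48 h in saturated atmosphere at 24° C. Seedlings had been sprayed to run-off one day before spore inoculation. Dose 200 ppm, or 40 ppm where starred.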

[1] = system: Erysiphe graminis f. sp. tritici; test: Test J: wheat powdery mildew on wheat seedlings, sprayed the day before inoculation, visual disease rating
How it was run: as §1

Botrytis cinerea = test: Test C: tomato Botrytis on tomato seedlings, sprayed the day before inoculation, visual disease rating
How it was run: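 Each compound is first taken up in acetone at 3% of the final volume and then brought to the desired ppm in a 50:50 acetone–water mix with 250 ppm surfactant (polyhydric alcohol esters). Tomato seedlings receive the suspension to run-off, normally at 200 ppm, occasionally 40 ppm.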

[2] = system: Puccinia recondita f. sp. tritici; test: Test I: wheat leaf rust on wheat seedlings, sprayed the day before inoculation, visual disease rating
How it was run: as §1

[3] = 40 ppm (marked *), 0 = no control
[4] = 200 ppm, 0 = no control relative to controls

SMILES | Test F disease control rating (Septoria nodorum; 200 ppm, 0 = no control) | Test D disease control rating (Alternaria solani; 200 ppm, 0 = no control) | Test G disease control rating (Septoria tritici; 200 ppm, 0 = no control) | Test J disease control rating ([1]; 200 ppm, 0 = no control) | Test C disease control rating (Botrytis cinerea; 200 ppm, 0 = no control) | Test I disease control rating ([2]; 200 ppm, 0 = no control) | Test F disease control rating (Septoria nodorum; [4]) | Test D disease control rating (Alternaria solani; [4]) | Test G disease control rating (Septoria tritici; [4]) | Test J disease control rating [1, 4] | Test C disease control rating (Botrytis cinerea; [4]) | Test I disease control rating [2, 4] | other results
Fc1cccc(F)c1-n1c(Br)nc(Cl)c1-c1ccc(Cl)cc1 [compound 164] |  |  |  |  |  |  |  |  |  |  |  |  | Test F disease control rating (Septoria nodorum; [3]): 0* %; Test D disease control rating (Alternaria solani; [3]): 88* %; Test G disease control rating (Septoria tritici; [3]): 96* %; Test J disease control rating [1, 3]: 94* %; Test C disease control rating (Botrytis cinerea; [3]): 91* %; Test I disease control rating [2, 3]: 19* %
Fc1cc(-n2c(Cl)nc(CCl)c2-c2ccccc2F)ccc1Cl [compound 259] | 0% | 16% | 63% | 93% | 99% | 82% |  |  |  |  |  |  | 
COc1cc(F)c(-c2c(Cl)nc(Br)n2-c2ccc(Cl)nc2)c(F)c1 [compound 729] |  |  |  |  |  |  | 99% | 100% | 99% | 100% | 100% | 100% | 
Cc1nn(C)c(-c2c(Cl)cccc2Cl)c1-c1ccc(Cl)cc1 [compound 87] |  |  |  |  |  |  | 0% | 0% | 84% | 99% | 0% | 27% | 
COc1cc(F)c(-c2c(C)nc(C)n2-c2ccc(Cl)cc2)c(F)c1 [compound 55] |  |  |  |  |  |  |  |  |  |  |  |  | Test F disease control rating (Septoria nodorum; 40 ppm (marked *)): 98* %; Test D disease control rating (Alternaria solani; 40 ppm (marked *)): 100* %; Test G disease control rating (Septoria tritici; 40 ppm (marked *)): 93* %; Test J disease control rating ([1]; 40 ppm (marked *)): 100* %; Test C disease control rating (Botrytis cinerea; 40 ppm (marked *)): 94* %; Test I disease control rating ([2]; 40 ppm (marked *)): 99* %
Cc1nn(C)c(-c2c(F)cccc2Cl)c1-c1ccc(Cl)cc1 [compound 61] |  |  |  |  |  |  | 0% | 0% | 60% | 99% | 40% | 92% | 
COc1ccc(F)c(-c2c(Br)ncn2-c2ccc(F)cc2)c1F [Compound 450, 4-bromo-5-(2,6-difluoro-3-methoxyphenyl)-1-(4-fluorophenyl)-1H-imidazole] |  |  |  |  |  |  |  |  |  |  |  |  | pest or weed control at 200 ppm (Septoria nodorum; Parastagonospora nodorum, 264 h, 200 ppm, 0 = no control relative to controls): 99%; pest or weed control at 200 ppm (Alternaria solani; Alternaria solani, 168 h, 200 ppm, 0 = no control relative to controls): 100%; pest or weed control at 200 ppm (Septoria tritici; Zymoseptoria tritici, 504 h, 200 ppm, 0 = no control relative to controls): 97%; pest or weed control at 200 ppm ([1]; Blumeria graminis, 168 h, 200 ppm, 0 = no control relative to controls): 100%; pest or weed control at 200 ppm (Botrytis cinerea; Botrytis cinerea, 120 h, 200 ppm, 0 = no control relative to controls): 97%; pest or weed control at 200 ppm ([2]; Puccinia recondita, 168 h, 200 ppm, 0 = no control relative to controls): 100%
Fc1ccc(-n2c(Cl)nc(Cl)c2-c2c(F)cccc2Cl)cc1 [compound 228] | 0% | 99% | 98% | 99% | 96% | 94% |  |  |  |  |  |  | 
COc1cc(F)c(-c2c(C)nc(Cl)n2-c2ccc(Cl)c(F)c2)c(F)c1 [compound 261] | 100% | 100% | 95% | 100% | 99% | 100% |  |  |  |  |  |  | 
Fc1cc(-n2cnc(Cl)c2-c2c(F)ccc(F)c2F)ccc1Cl [compound 124] |  |  |  |  |  |  | 0% | 97% | 90% | 98% | 98% | 95% | 
Cc1ccc(-n2c(C)nc(Cl)c2-c2c(F)cccc2F)cc1F [compound 175] | 82% | 97% | 98% | 99% | 97% | 100% |  |  |  |  |  |  | 
Cc1ccc(-n2c(Cl)nc(Cl)c2-c2c(F)cccc2Cl)cc1 [compound 227] | 0% | 96% | 94% | 99% | 98% | 99% |  |  |  |  |  |  | 
Cc1ccc(-n2c(Br)nc(Cl)c2-c2c(F)ccc(F)c2F)cc1 [compound 141] |  |  |  |  |  |  | 0% | 100% | 91% | 100% | 99% | 99% | 
Cc1nc(Cl)c(-c2c(F)cc(O)cc2F)n1-c1ccc(Cl)cc1 [compound 119] |  |  |  |  |  |  | 40% | 80% | 91% | 0% | 96% | 80% | 
Cc1nc(Cl)c(-c2c(F)ccc(F)c2F)n1-c1ccc(Cl)c(F)c1 [compound 157] | 98% | 99% | 97% | 100% | 97% | 100% |  |  |  |  |  |  | 
COc1cc(F)c(-c2c(Cl)nc(C)n2-c2ccccc2)c(F)c1C [compound 439] |  |  |  |  |  |  | 95% | 100% | 94% | 100% | 97% | 100% | 
Cc1ccc(-n2c(Br)nc(Cl)c2-c2c(F)cc(F)cc2F)cc1 [compound 153] | 69% | 100% | 96% | 100% | 98% | 99% |  |  |  |  |  |  | 
Fc1cc(-n2c(Br)nc(Cl)c2-c2c(F)ccc(F)c2F)ccc1Cl [compound 143] |  |  |  |  |  |  | 100% | 100% | 100% | 100% | 99% | 100% | 
Cc1nn(C)c(-c2c(Cl)cccc2Cl)c1-c1ccc(Cl)c(F)c1 [compound 89] |  |  |  |  |  |  | 0% | 0% | 3% | 98% | 0% | 85% | 
Fc1ccc(-n2c(Br)nc(Cl)c2-c2c(F)cccc2F)cc1F [compound 169] | 40% | 100% | 96% | 99% | 99% | 88% |  |  |  |  |  |  | 
Cc1nc(Cl)c(-c2ccc(F)cc2Cl)n1-c1ccc(Cl)c(F)c1 [compound 243] | 98% | 100% | 99% | 98% | 99% | 100% |  |  |  |  |  |  | 
COc1cc(F)c(-n2c(C)nc(C)c2-c2ccc(Cl)cc2)c(F)c1 [compound 249] |  |  |  |  |  |  |  |  |  |  |  |  | Test F disease control rating (Septoria nodorum; [3]): 73* %; Test D disease control rating (Alternaria solani; [3]): 99* %; Test G disease control rating (Septoria tritici; [3]): 93* %; Test J disease control rating [1, 3]: 81* %; Test C disease control rating (Botrytis cinerea; [3]): 100* %; Test I disease control rating [2, 3]: 74* %
Cc1nc(Cl)n(-c2ccc(Cl)c(F)c2)c1-c1ccccn1 [compound 264] | 0% | 88% | 95% | 99% | 99% | 98% |  |  |  |  |  |  | 
Fc1cccc(F)c1-n1c(Br)nc(Br)c1-c1ccc(Cl)cc1 [compound 162] |  |  |  |  |  |  |  |  |  |  |  |  | Test F disease control rating (Septoria nodorum; [3]): 0* %; Test D disease control rating (Alternaria solani; [3]): 97* %; Test G disease control rating (Septoria tritici; [3]): 93* %; Test J disease control rating [1, 3]: 94* %; Test C disease control rating (Botrytis cinerea; [3]): 88* %; Test I disease control rating [2, 3]: 23* %
Cc1ccc(F)c(-c2c(Cl)ncn2-c2ccc(Cl)cc2)c1F [compound 97] |  |  |  |  |  |  | 0% | 97% | 95% | 99% | 94% | 91% | 
Fc1cc(Cn2c(Br)nc(Cl)c2-c2c(F)cccc2F)ccc1Cl [compound 102] |  |  |  |  |  |  | 55% | 0% | 97% | 99% | 98% | 99% | 
COc1ccc(Cn2c(Cl)nc(Cl)c2-c2c(F)cccc2F)cc1Cl [compound 213] | 0% | 0% | 96% | 42% | 63% | 100% |  |  |  |  |  |  | 
